Holding throughout (type): functional, cell-based
The subject of experiment [1] is BE(2)-C. Briefly: Induction of neuron differentiation in human BE2C cells assessed as neurite outgrowth by measuring neurite length at 25 uM measured after 4 days. To be noted: time 4.0 day.
In experiment [2] the test system is BE(2)-C. Nature of the experiment: Induction of neuron differentiation in human BE2C cells assessed as neurite outgrowth by measuring neurite length at 25 uM by imaging analysis.
Experiment [3] deals with BE(2)-C. Briefly: Antiproliferative activity against human BE2C cells assessed as reduction in cell viability at 25 uM.
In experiment [4] the test system is BE(2)-C. Briefly: Induction of neuron differentiation in human BE2C cells assessed as neurite outgrowth by measuring neurite length. The following applies: dose 50-200 µM.
For experiment [5], the system named is BE(2)-C. Briefly: Antiproliferative activity against human BE2C cells assessed as reduction in cell viability. To be noted: dose 50-200 µM.
The test system of experiment [6] is BE(2)-C. Briefly: Induction of neuron differentiation in human BE2C cells assessed as neurite outgrowth by measuring neurite length at 25 uM.
In experiment [7] the test system is BE(2)-C. Briefly: Antiproliferative activity against human BE2C cells assessed as reduction in cell viability at 25 uM measured after 4 days. To be noted: time 4.0 day.

Molecules are shown by their SMILES. Calls of active or inactive are those of the source. No cut-off for these calls is given here.

For the molecule `Cn1nnnc1S(C)(=O)=O`, in the experiment with BE(2)-C [1], the outcome was Active.
Same read-out and setting: the same measure for `CCCSc1nnnn1C`: “inactive”; for `CCSc1nnnn1C`: “inactive”.
Turning to `CCS(=O)(=O)c1nnnn1C`, the result in the experiment on BE(2)-C [2], in the experiment on BE(2)-C [3] and in the experiment with BE(2)-C [6] was Active. The Activity entry in the experiment on BE(2)-C [4] and with BE(2)-C [5] was “Dose-Dependent Effect” in each case.
For `Cn1nnnc1SCC1CCC1`, the result in the experiment with BE(2)-C [1] was inactive.
For `C=CCS(=O)(=O)c1nnnn1C`, the outcome with BE(2)-C [1] and with BE(2)-C [7] was Active.
For `CCCS(=O)(=O)c1nnnn1C`, in the experiment with BE(2)-C [1], the result was Active.
The same measure, in the same setting: the same measure for `Cn1nnnc1SCC#C[Si](C)(C)C`: “inactive”.
On to `CSc1nnnn1C`, for which the result with BE(2)-C [1] was inactive.
Same read-out and setting: for `C=CCSc1nnnn1C` the value was “inactive”.
On the same count and under the same terms, the same measure for `Cn1nnnc1S(=O)(=O)CC1CCC1`: “Active”; for `Cn1nnnc1SCC1CC1`: “inactive”.
